Assay results published in patent US20030207812A1, “Cd45 inhibitors” (priority 2002, published 2003).
Like-named read-outs stand apart in the source and are kept apart here. Where a SMILES comes first, the peptide text is derived from it. The star is where a group is joined. 3Phenanthroyl(9,10-dioxo) = O=C1C(=O)c2ccc(C(=O)*)cc2-c2ccccc21; X1 = O=C1C(=O)c2cc(N*)ccc2-c2ccccc21

What was measured:
[1] = Cytotoxicity assay (Calcein-AM uptake); settings: human, PHA-expanded T-cell lymphoblasts from PBMC
Method: Calcein-AM (Molecular Probes. Eugene, Oreg.) uptake, as a quantitative measure of cell viability, was used to evaluate the toxic effect of compounds on T cells.
The T-cell lymphoblasts were purified by separation over Lymphoprep, plated at 2×10^5/well in a round bottom 96-well plate containing RPMI with compound and incubated overnight at 37° C. in an incubator containing 5% CO2. The dilution scheme and culture media were the same as those used in the T-cell proliferation assay. After the incubation period, cells were washed with Dulbecco's phosphate-buffered saline (D-PBS) and incubated with 1 μM Calcein-AM for 30-45 mim in D-PBS as described in the technical sheet provided with The LIVE/DEAD Viability/Cytotoxicity Kit from Molecular Probes.

CD45 [2] = molecular target: T1, CD45 (Homo sapiens, UniProt P08575); experiment: Phosphatase assay using pNPP as substrate; assay type: biochemical
T1 construct: incubating the cytosolic portion of CD45 with the compounds and p-nitrophenyl phosphate (pNPP); purchased BIOMOL (Plymouth Meeting, Pa.)
T1 sequence (P08575 599-1306 limits assumed): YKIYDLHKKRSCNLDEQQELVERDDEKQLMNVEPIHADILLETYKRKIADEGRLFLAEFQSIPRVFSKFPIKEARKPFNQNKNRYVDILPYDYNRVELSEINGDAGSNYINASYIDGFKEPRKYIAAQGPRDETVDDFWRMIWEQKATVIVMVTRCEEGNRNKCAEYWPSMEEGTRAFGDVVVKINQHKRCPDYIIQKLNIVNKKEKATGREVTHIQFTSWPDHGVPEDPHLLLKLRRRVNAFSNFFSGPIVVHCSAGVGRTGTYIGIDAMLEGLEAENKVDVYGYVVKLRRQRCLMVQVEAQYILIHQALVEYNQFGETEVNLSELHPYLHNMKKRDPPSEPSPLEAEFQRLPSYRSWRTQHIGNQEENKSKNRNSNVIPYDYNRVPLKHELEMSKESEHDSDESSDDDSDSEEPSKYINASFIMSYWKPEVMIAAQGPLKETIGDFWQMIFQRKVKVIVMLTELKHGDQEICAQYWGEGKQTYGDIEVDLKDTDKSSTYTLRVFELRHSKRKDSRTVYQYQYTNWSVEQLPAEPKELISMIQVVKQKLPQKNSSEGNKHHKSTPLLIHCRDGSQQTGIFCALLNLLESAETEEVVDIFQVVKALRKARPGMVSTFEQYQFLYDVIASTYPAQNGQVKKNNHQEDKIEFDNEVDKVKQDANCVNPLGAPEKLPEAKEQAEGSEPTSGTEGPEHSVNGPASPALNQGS
Method: Phosphatase assay using pNPP as substrate:
CD45 enzyme was obtained from BIOMOL (Plymouth Meeting, Pa.). Phosphatase activity was assayed in a buffer containing final concentrations of 25 mM imidazole at pH 7.0, 50 mM NaCl, 2.5 mM ethylenediaminetetraacetic acid (“EDTA”), 5 mM dithiothreitol (“DTT”) and 10 μg/mL bovine serum albumin (“BSA”) using pNPP as a substrate.

CD45 [3] = molecular target: T1, CD45; experiment: Phosphatase assay using lck 10-mer as substrate; assay type: biochemical; settings: CD45 phosphatase, lck carboxy-terminal peptide TEGQpYQPQP substrate, pH 7.2; read-out: Ick IC50
Method: Phosphatase assay using lck 10-mer as substrate:
Phosphatase activity was assayed in 96 well plates in a buffer containing final concentrations of 25 mM HEPES at pH 7.2, 5 mM DTT and 10 μg/mL BSA using the lck carboxy-terminal peptide TEGQpYQPQP as the substrate (Cho, H., Krishnaraj, R., Itoh, M., Kitas, E., Bannwarth, W., Saito, H., Walsh, C. T. 1993. Substrate specificities of catalytic fragments of protein tyrosine phosphatases (HPTPb, LAR, and CD45) toward the phosphotyrosylpeptide substrates and thiophosphotyrosylated peptides as inhibitors. Protein Science 2:977-984). Compounds were tested in a range from 30 to 0.01 μM in a final concentration of 5% DMSO. Enzyme was incubated with substrate with or without compound, at room temperature for 1.5 h. At the end of the incubation period, BIOMOL “Green Reagent” (BIOMOL, Plymouth Meeting, Pa.) was added to each well, the plates incubated at room temperature for 30 min and absorbance read at 620 nm.

T cells (PBMC) = experiment: cells; assay type: cell-based, human; settings: read-out: T cell prolif. IC50
Method: Cell isolation and T cell proliferation assay:
Whole blood was obtained from healthy human blood donors. Peripheral blood mononuclear cells (“PBMC”) were isolated using Lymphoprep density-gradient centrifugation (Nycomed Amersham, Oslo, Norway), washed, counted and resuspended at 2×10^6 cells/mL in RPMI 1640 medium containing glutamine, 0.1 mg/mL gentamycin and 10% heat inactivated human serum. PBMC were transferred to 96-well plates (2×10^5 cells/well) containing compound or vehicle control, with the final concentration of DMSO not to exceed 0.3%, and incubated for 1 hour before addition of the activating anti-CD3 antibody, OKT3 (30ng/mL). After 24 hours in culture, the cells were pulsed with [^3H]thymidine (1 μCi/well) overnight and harvested the next day onto 96-well Packard GF/C filter plates using a Packard Cell Harvester (Packard Instruments, Meriden, Conn.). The filter plate was dried, the bottom of the plate sealed, 25 μL of Microscint 20 scintillation fluid added to each well, the top of the plate sealed with TopSeal-A, and the plate counted on a Packard TopCount. The data from the TopCount is transferred into Excel 5 (Microsoft, Redmond, Wash.) and formatted for EC50 determination using Prism software (GraphPad Software, San Diego, Calif.).

[4] = CD45 phosphatase, pNPP substrate, pH 7.0, read-out: pNPP IC50
[5] = human PBMC, OKT3 30 ng/mL, [3H]thymidine

IC50 (CD45 [2]; [4]) [nM] | IC50 (CD45 [3]) [µM] | SMILES | CC50 [1] [µM] | IC50 (T cells (PBMC); [5]) [nM] | IC50 (CD45 [2]) [nM] | IC50 (CD45 [2]; pH 7, read-out: pNPP IC50) [nM] | IC50 (T cells (PBMC); Homo sapiens) [nM]
600 | 11 | O=C(Nc1ccc2c(c1)C(=O)C(=O)c1ccccc1-2)c1ccccc1F [Example 1, N-(9,10-Dioxo-9,10-dihydro-phenanthren-2-yl)-2-fluoro-benzamide] | 20 | 3100 | – | – | –
500 | 11 | O=C(COCc1ccccc1)Nc1ccc2c(c1)C(=O)C(=O)c1ccccc1-2 [Example 2, 2-Benzyloxy-N-(9,10-dioxo-9,10-dihydro-phenanthren-2-yl)-acetamide] | 14 | 1000 | – | – | –
700 | 17 | CCCC(=O)Nc1ccc2c(c1)C(=O)C(=O)c1ccccc1-2 [Example 3, N-(9,10-Dioxo-9,10-dihydro-phenanthren-2-yl)-butyramide] | 8.2 | 1100 | – | – | –
200 | 3.8 | CC(C)(C)C(=O)Nc1ccc2c(c1)C(=O)C(=O)c1ccccc1-2 [Example 4, N-(9,10-Dioxo-9,10-dihydro-phenanthren-2-yl)-2,2-dimethyl-propionamide] | 3.5 | – | – | – | –
300 | 12 | O=C1C(=O)c2cc(NC(=O)c3ccccc3[N+](=O)[O-])ccc2-c2ccccc21 [Example 5, N-(9,10-Dioxo-9,10-dihydro-phenanthren-2-yl)-2-nitro-benzamide] | 8.2 | 1000 | – | – | –
1100 | 5.8 | O=C1C(=O)c2ccc(NC(=O)c3ccccc3C(F)(F)F)cc2-c2ccccc21 [Example 13, N-(9,10-Dioxo-9,10-dihydro-phenanthren-3-yl)-2-trifluoromethyl-benzamide] | 14 | – | – | – | –
12900 | > 30 | Cc1ccc(S(=O)(=O)N(c2ccc3c(c2)C(=O)C(=O)c2ccccc2-3)S(=O)(=O)c2ccc(C)cc2)cc1 [Example 14, N-(9,10-Dioxo-9,10-dihydro-phenanthren-2-yl)-4-methyl-N-[(4-methylphenyl)sulfonyl]-benzenesulfonamide] | 5.3 | – | – | – | –
3700 | – | O=C1C(=O)c2cc(-c3cc4ccccc4o3)ccc2-c2ccccc21 [Example 16, 2-Benzofuran-2-yl-phenanthrene-9,10-dione] | 3.6 | – | – | – | –
750 | – | O=C1C(=O)c2cc(-c3ccccc3F)ccc2-c2ccccc21 [Example 18, 2-(2-Fluoro-phenyl)-phenanthrene-9,10-dione] | 8.4 | – | – | – | –
990 | – | COc1ccccc1-c1ccc2c(c1)C(=O)C(=O)c1ccccc1-2 [Example 20, 2-(2-Methoxy-phenyl)-phenanthrene-9,10-dione] | 8.9 | – | – | – | –
2000 | 7.9 | CC(=O)N[C@@H](C)C(=O)N[C@H](C(=O)N[C@@H](CCC(=O)O)C(=O)NCC(=O)N[C@@H](CCC(N)=O)C(=O)N[C@@H](CC(=O)Nc1ccc2c(c1)C(=O)C(=O)c1ccccc1-2)C(=O)O)[C@@H](C)O [Example 60] (Ac-ATEGQD(X1)-OH) | – | – | – | – | –
– | – | CC(=O)N[C@H](C(=O)N[C@@H](C)C(=O)N[C@H](C(=O)N[C@@H](CCC(=O)O)C(=O)NCC(=O)N[C@@H](CCC(N)=O)C(=O)N[C@@H](CC(=O)Nc1ccc2c(c1)C(=O)C(=O)c1ccccc1-2)C(=O)O)[C@@H](C)O)[C@@H](C)O [Example 61] (Ac-TATEGQD(X1)-OH) | – | – | – | 1800 | –
– | – | CC(=O)N[C@@H](Cc1ccccc1)C(=O)N[C@H](C(=O)N[C@@H](C)C(=O)N[C@H](C(=O)N[C@@H](CCC(=O)O)C(=O)NCC(=O)N[C@@H](CCC(N)=O)C(=O)N[C@@H](CC(=O)Nc1ccc2c(c1)C(=O)C(=O)c1ccccc1-2)C(=O)O)[C@@H](C)O)[C@@H](C)O [Example 62] (Ac-FTATEGQD(X1)-OH) | – | – | – | 1400 | –
500 | 3.7 | COC(=O)CCCCCCC(=O)Nc1ccc2c(c1)C(=O)C(=O)c1ccccc1-2 [Example 71, 7-(9,10-Dioxo-9,10-dihydro-phenanthren-2-ylcarbamoyl)-heptanoic Acid Methyl Ester] | 14 | – | – | – | –
> 30000 | – | COC(=O)CCCCCCCCC(=O)Nc1ccc2c(c1)C(=O)C(=O)c1ccccc1-2 [Example 72, 9-(9,10-Dioxo-9,10-dihydro-phenanthren-2-ylcarbamoyl)-nonanoic Acid Methyl Ester] | – | – | – | – | –
500 | 2.9 | COC(=O)CCC(=O)Nc1ccc2c(c1)C(=O)C(=O)c1cc(NC(=O)CCC(=O)OC)ccc1-2 [Example 82, N-[7-(3-Methoxycarbonyl-propionylamino)-9,10-dioxo-9,10-dihydro-phenanthren-2-yl]-succinamic Acid Methyl Ester] | 7 | – | – | – | –
400 | 2.3 | Nc1ccc2c(c1)C(=O)C(=O)c1ccccc1-2 [Example 87, 2-Amino-phenanthrene-9,10-dione] | 5 | – | – | – | –
3740 | 10.5 | Nc1ccc2c(c1)-c1ccccc1C(=O)C2=O [Example 88, 3-Amino-phenanthrene-9,10-dione] | 17 | – | – | – | –
400 | 3.2 | COC(=O)CCC(=O)Nc1ccc2c(c1)-c1ccccc1C(=O)C2=O [Example 90, N-(9,10-Dioxo-9,10-dihydro-phenanthren-3-yl)-succinamic Acid Methyl Ester] | 18 | – | – | – | –
500 | 3.9 | O=C1C(=O)c2cccc([N+](=O)[O-])c2-c2ccccc21 [Example 93, 4-Nitro-phenanthrene-9,10-dione] | 10 | – | – | – | –
– | – | O=C1C(=O)c2cccc([N+](=O)[O-])c2-c2ccc([N+](=O)[O-])cc21 [Example 95, 2,5-Dinitro-phenanthrene-9,10-dione] | ≥ 30 | – | – | – | > 30000
1000 | 2.4 | O=C(O)c1ccc2c(c1)-c1ccccc1C(=O)C2=O [Example 98, 9,10-Dioxo-9,10-dihydro-phenanthrene-3-carboxylic Acid] | – | > 30000 | – | – | –
– | 3.4 | CC(C)(C)OC(=O)CNC(=O)c1ccc2c(c1)-c1ccccc1C(=O)C2=O [Example 102, [(9,10-dioxo-9,10-dihydro-phenanthrene-3-carbonyl)-amino]-acetic acid tert-butyl ester] | 2.5 | 300 | – | – | –

SMILES | IC50 (CD45 [2]; [4]) [nM] | IC50 (CD45 [3]) [µM] | CC50 [1] [µM] | IC50 (T cells (PBMC); [5]) [nM] | IC50 (CD45 [2]) [nM] | IC50 (CD45 [2]; pH 7, read-out: pNPP IC50) [nM] | IC50 (T cells (PBMC); Homo sapiens) [nM]
NC(=O)CC[C@H](NC(=O)c1ccc2c(c1)-c1ccccc1C(=O)C2=O)C(=O)N[C@@H](CCC(N)=O)C(=O)N1CCC[C@H]1C(=O)N[C@@H](CCC(=O)O)C(=O)NCC(=O)O [Example 34] ({3Phenanthroyl(9,10-dioxo)}-QQPEG-OH) | – | 1.9 | – | – | 900 | – | –
NC(=O)CC[C@H](NC(=O)[C@@H]1CCCN1C(=O)[C@H](CCC(=O)O)NC(=O)CNC(=O)c1ccc2c(c1)-c1ccccc1C(=O)C2=O)C(=O)NCC(=O)O [Example 38] ({3Phenanthroyl(9,10-dioxo)}-GEPQG-OH) | – | 2.2 | – | – | 700 | – | –
